Results: patent publication US20090087376A1, “Heterocyclic Dye Compounds For In Vivo Imaging And Diagnosis Of Alzheimer's Disease” (The General Hospital Corporation, priority 2004, published 2009)

How the values were obtained:
β-amyloid plaques = assay: Plaque specificity of dye compounds; format: binding
Enter CNS (BBB) = conditions: in vivo
[1] = Near-IR spectra of dye compounds; format: physicochemical

Row | Compound | Plaque specificity (β-amyloid plaques) | Enter CNS (BBB) (Enter CNS (BBB)) | Near-IR spectra [1]
1 | C[N+]1=C(/C=C/c2ccc(-c3ccc(-c4ccc(O)cc4)s3)s2)C(C)(C)c2ccccc21.[Cl-] [NIAD3] | Yes | No | Yes
2 | CN(C)c1ccc(-c2sc(-c3ccc(C=C(C#N)C#N)s3)c3ccccc23)cc1 [NIAD6] | Yes | No | Yes
3 | CC1(C)C(/C=C/c2ccc(-c3ccc(-c4ccc(O)cc4)s3)s2)=[N+](CCCS(=O)(=O)[O-])c2ccccc21 [NIAD1] | Yes | Yes/No | Yes
4 | CN(C)c1ccc(-c2ccc(-c3ccc(C=C4C(=C(C#N)C#N)c5ccccc5C4=C(C#N)C#N)s3)s2)cc1 [NIAD7] | Yes | Yes | No
